Laboratory results taken from the supplement of paper PMC10307832.

What was measured:
Experiment in all cases: relative viability (nuclei count vs DMSO), 5 days (fraction); higher = more cells survive
NCI-H1993 = test system: NCI-H1993
Outline: (§1)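 Cells from lung cancer lines were seeded into 1536-well plates and, one day later, dosed by pin tool. Treatments were either a single drug or a fixed dose of an anchor drug with five library-drug doses (not always all listed) in √10 steps. After 5 days, nuclei were stained in a one-step fixation (final 0.05% Triton X-100, 1% formaldehyde, 1 ug/ml Hoechst) and counted on 4× images, and relative viability is the treated-to-vehicle nuclei ratio, as the median of duplicate plates.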

NCI-H1734 = test system: NCI-H1734
Outline: as §1

HCC-827 = test system: HCC-827
Outline: as §1

BEN = test system: BEN
Outline: as §1

HCC-366 = test system: HCC-366
Outline: as §1

NCI-H2009 = test system: NCI-H2009
Outline: as §1

SK-MES-1 = test system: SK-MES-1
Outline: as §1

NCI-H2405 = test system: NCI-H2405
Outline: as §1

LOU-NH91 = test system: LOU-NH91
Outline: as §1

HARA = test system: HARA
Outline: as §1

NCI-H2087 = test system: NCI-H2087
Outline: as §1

NCI-H1355 = test system: NCI-H1355
Outline: as §1

NCI-H2170 = test system: NCI-H2170
Outline: as §1

SK-LU-1 = test system: SK-LU-1
Outline: as §1

NCI-H661 = test system: NCI-H661
Outline: as §1

NCI-H1395 = test system: NCI-H1395
Outline: as §1

NCI-H2342 = test system: NCI-H2342
Outline: as §1

NCI-H647 = test system: NCI-H647
Outline: as §1

NCI-H1792 = test system: NCI-H1792
Outline: as §1

EKVX = test system: EKVX
Outline: as §1

NCI-H1437 = test system: NCI-H1437
Outline: as §1

NCI-H522 = test system: NCI-H522
Outline: as §1

Cc1sc2c(c1C)C(c1ccc(Cl)cc1)=N[C@@H](CC(=O)OC(C)(C)C)c1nnc(C)n1-2 [JQ1] + CC(=O)Nc1cccc(-n2c(=O)n(C3CC3)c(=O)c3c(Nc4ccc(I)cc4F)n(C)c(=O)c(C)c32)c1 [Trametinib] (partner 0.02 µM)
relative viability (NCI-H1993; first compound 0.04 µM): 0.465 | relative viability (NCI-H1993; first compound 0.1265 µM): 0.461 | relative viability (NCI-H1993; first compound 0.4 µM): 0.541 | relative viability (NCI-H1993; first compound 1.265 µM): 0.542 | relative viability (NCI-H1993; first compound 4 µM): 0.57 | relative viability (NCI-H1734; first compound 0.04 µM): 0.685 | relative viability (NCI-H1734; first compound 0.1265 µM): 0.688 | relative viability (NCI-H1734; first compound 0.4 µM): 0.644 | relative viability (NCI-H1734; first compound 1.265 µM): 0.462 | relative viability (NCI-H1734; first compound 4 µM): 0.491 | relative viability (HCC-827; first compound 0.04 µM): 0.562 | relative viability (HCC-827; first compound 0.1265 µM): 0.519 | relative viability (HCC-827; first compound 1.265 µM): 0.543 | relative viability (HCC-827; first compound 4 µM): 0.474 | relative viability (BEN; first compound 0.04 µM): 1.05 | relative viability (BEN; first compound 0.1265 µM): 0.829 | relative viability (BEN; first compound 0.4 µM): 0.557 | relative viability (BEN; first compound 1.265 µM): 0.481 | relative viability (BEN; first compound 4 µM): 0.41 | relative viability (HCC-366; first compound 0.04 µM): 0.407 | relative viability (HCC-366; first compound 0.4 µM): 0.372 | relative viability (HCC-366; first compound 1.265 µM): 0.235 | relative viability (HCC-366; first compound 4 µM): 0.237 | relative viability (NCI-H2009; first compound 0.04 µM): 0.234 | relative viability (NCI-H2009; first compound 0.1265 µM): 0.197 | relative viability (NCI-H2009; first compound 0.4 µM): 0.173 | relative viability (NCI-H2009; first compound 1.265 µM): 0.15 | relative viability (NCI-H2009; first compound 4 µM): 0.135 | relative viability (SK-MES-1; first compound 0.04 µM): 0.446 | relative viability (SK-MES-1; first compound 0.1265 µM): 0.309 | relative viability (SK-MES-1; first compound 0.4 µM): 0.32 | relative viability (SK-MES-1; first compound 1.265 µM): 0.24 | relative viability (SK-MES-1; first compound 4 µM): 0.259 | relative viability (NCI-H2405; first compound 0.04 µM): 0.627 | relative viability (NCI-H2405; first compound 0.4 µM): 0.601 | relative viability (NCI-H2405; first compound 1.265 µM): 0.422 | relative viability (NCI-H2405; first compound 4 µM): 0.332 | relative viability (LOU-NH91; first compound 0.04 µM): 0.774 | relative viability (LOU-NH91; first compound 0.1265 µM): 0.719 | relative viability (LOU-NH91; first compound 0.4 µM): 0.603 | relative viability (LOU-NH91; first compound 1.265 µM): 0.479 | relative viability (LOU-NH91; first compound 4 µM): 0.414 | relative viability (HARA; first compound 0.04 µM): 0.72 | relative viability (HARA; first compound 0.1265 µM): 0.411 | relative viability (HARA; first compound 0.4 µM): 0.174 | relative viability (HARA; first compound 1.265 µM): 0.184 | relative viability (HARA; first compound 4 µM): 0.304 | relative viability (NCI-H2087; first compound 0.04 µM): 0.192 | relative viability (NCI-H2087; first compound 0.1265 µM): 0.179 | relative viability (NCI-H2087; first compound 0.4 µM): 0.18 | relative viability (NCI-H2087; first compound 1.265 µM): 0.142 | relative viability (NCI-H2087; first compound 4 µM): 0.167 | relative viability (NCI-H1355; first compound 0.04 µM): 0.432 | relative viability (NCI-H1355; first compound 0.1265 µM): 0.429 | relative viability (NCI-H1355; first compound 0.4 µM): 0.34 | relative viability (NCI-H1355; first compound 1.265 µM): 0.277 | relative viability (NCI-H1355; first compound 4 µM): 0.255 | relative viability (NCI-H2170; first compound 0.04 µM): 0.861 | relative viability (NCI-H2170; first compound 0.1265 µM): 0.843 | relative viability (NCI-H2170; first compound 0.4 µM): 0.637 | relative viability (NCI-H2170; first compound 1.265 µM): 0.585 | relative viability (NCI-H2170; first compound 4 µM): 0.519 | relative viability (SK-LU-1; first compound 0.04 µM): 0.509 | relative viability (SK-LU-1; first compound 0.1265 µM): 0.444 | relative viability (SK-LU-1; first compound 0.4 µM): 0.434 | relative viability (SK-LU-1; first compound 1.265 µM): 0.359 | relative viability (SK-LU-1; first compound 4 µM): 0.195 | relative viability (NCI-H661; first compound 0.04 µM): 0.554 | relative viability (NCI-H661; first compound 0.1265 µM): 0.451 | relative viability (NCI-H661; first compound 0.4 µM): 0.508 | relative viability (NCI-H661; first compound 1.265 µM): 0.46 | relative viability (NCI-H661; first compound 4 µM): 0.441 | relative viability (NCI-H1395; first compound 0.04 µM): 1.03 | relative viability (NCI-H1395; first compound 0.1265 µM): 0.991 | relative viability (NCI-H1395; first compound 0.4 µM): 0.912 | relative viability (NCI-H1395; first compound 1.265 µM): 0.628 | relative viability (NCI-H1395; first compound 4 µM): 0.578 | relative viability (NCI-H2342; first compound 0.04 µM): 0.782 | relative viability (NCI-H2342; first compound 0.1265 µM): 0.8 | relative viability (NCI-H2342; first compound 0.4 µM): 0.905 | relative viability (NCI-H2342; first compound 1.265 µM): 0.803 | relative viability (NCI-H2342; first compound 4 µM): 0.672 | relative viability (NCI-H647; first compound 0.04 µM): 0.403 | relative viability (NCI-H647; first compound 0.1265 µM): 0.326 | relative viability (NCI-H647; first compound 0.4 µM): 0.214 | relative viability (NCI-H647; first compound 1.265 µM): 0.126 | relative viability (NCI-H647; first compound 4 µM): 0.0652 | relative viability (NCI-H1792; first compound 0.04 µM): 0.345 | relative viability (NCI-H1792; first compound 0.1265 µM): 0.421 | relative viability (NCI-H1792; first compound 0.4 µM): 0.286 | relative viability (NCI-H1792; first compound 1.265 µM): 0.191 | relative viability (NCI-H1792; first compound 4 µM): 0.186 | relative viability (EKVX; first compound 0.04 µM): 0.286 | relative viability (EKVX; first compound 0.1265 µM): 0.38 | relative viability (EKVX; first compound 0.4 µM): 0.366 | relative viability (EKVX; first compound 1.265 µM): 0.432 | relative viability (EKVX; first compound 4 µM): 0.271 | relative viability (NCI-H1437; first compound 0.04 µM): 0.443 | relative viability (NCI-H1437; first compound 0.1265 µM): 0.519 | relative viability (NCI-H1437; first compound 0.4 µM): 0.344 | relative viability (NCI-H1437; first compound 1.265 µM): 0.35 | relative viability (NCI-H1437; first compound 4 µM): 0.26 | relative viability (NCI-H522; first compound 0.04 µM): 0.767 | relative viability (NCI-H522; first compound 0.1265 µM): 0.631 | relative viability (NCI-H522; first compound 0.4 µM): 0.485 | relative viability (NCI-H522; first compound 1.265 µM): 0.482 | relative viability (NCI-H522; first compound 4 µM): 0.447
